From PMC10140581, “Development and evaluation of novel artemisinin-isatin hybrids with potential anti-leukemic cytotoxicity” (Frontiers in Oncology, 2023) come the findings set out here.

In data set [1] the test system is K562/ADR human myeloid leukemia cell line. The data set can be described thus: MTT antiproliferative assay, K562/ADR. The format is cell-based. The protocol: The antiproliferative activity and cytotoxicity of ester tethered ART-isatin hybrids 7a-u against human myeloid leukemia cell lines (K562 CM-0130 purchased from Procell and K562/ADR AW-CELLS-H0187 purchased from AnWei-sci), human acute lymphoblastic leukemia cell line (CCRF-CEM CL-0058 purchased from Procell) as well as cytotoxicity towards normal human peripheral blood mononuclear cells (PBMCs 230470, purchased from Mingzhoubio) were assessed by 3-(4,5-dimethylthiazol-2-yl)-2,5-diphenyltetrazolium bromide (MTT) assay. The antiproliferative activity was expressed by half maximal inhibitory concentration (IC50) values, which were presented in Table 2 .
(§1) Medium in wells was replaced after 24 h with fresh medium containing the tested compounds in DMSO (1% v/v) and incubated for 72 h. […] 3-(4,5-dimethyl-2-thiazolyl)-2,5-diphenyltetrazolium bromide (MTT) solution (10 µL) was added to each well, and the cultures were incubated for an additional 4 h at 37°C. A further 100 µL of […] was added and incubation continued overnight at 37°C. The absorbance at 540 nm was determined in each well with a 96-well plate reader. The growth of the treated cells was compared with that of untreated cells. Half maximum inhibitory concentration (IC50) is a measurement of the efficacy of a substance in inhibiting a specific biological or biochemical process. […] In this experiment, the dose-response curve constructed by Spss22.0 software was used to calculate the inhibitory effect of the hybrid (0 μM-100 μM) on the activity of leukemia cell lines. Each experiment was performed independently in triplicate with three tests in each, and results were reported as mean inhibitory concentration IC50.
Background: Tetrazolium dyes change colour on reduction, which living cells bring about.

Data set [2] has as its system CCRF-CEM human acute lymphoblastic leukemia cell line. Description: MTT antiproliferative assay, CCRF-CEM. The data set is classed as cell-based. As for the experimental part:
(§2) The antiproliferative activity and cytotoxicity of ester tethered ART-isatin hybrids 7a-u against human myeloid leukemia cell lines (K562 CM-0130 purchased from Procell and K562/ADR AW-CELLS-H0187 purchased from AnWei-sci), human acute lymphoblastic leukemia cell line (CCRF-CEM CL-0058 purchased from Procell) as well as cytotoxicity towards normal human peripheral blood mononuclear cells (PBMCs 230470, purchased from Mingzhoubio) were assessed by 3-(4,5-dimethylthiazol-2-yl)-2,5-diphenyltetrazolium bromide (MTT) assay.
as §1

The subject of data set [3] is K562 human myeloid leukemia cell line. The data set can be described thus: MTT antiproliferative assay, K562. The data set is classed as cell-based. As for the experimental part:
as §2, §1

The subject of data set [4] is normal human peripheral blood mononuclear cells (PBMCs). The data set can be described thus: MTT cytotoxicity assay, normal PBMCs. The format is cell-based. The conditions noted are these: PBMCs vs CCRF-CEM. The protocol: as §2
The nature of data set [5]: MTT cytotoxicity assay, normal PBMCs. The data set is classed as cell-based, human. Conditions: normal peripheral blood mononuclear cells (PBMCs); MTT assay, normal human PBMCs. As for the experimental part: as §2

Structures are written as SMILES. pIC50: −log10 of the molar value.

As a reminder, the pIC50 is −log10 of the IC50, conventionally taken in molar units. Read a low pIC50 as a high IC50. Take `C[C@@H]1CC[C@H]2[C@@H](C)C(=O)O[C@@H]3O[C@@]4(C)CC[C@@H]1[C@]32OO4` [ART, Artemisinin]: the pIC50 in data set [1], in data set [2] and in data set [3] was less than 4.00 each time.

As to `COc1cccc2c1C(=O)c1c(O)c3c(c(O)c1C2=O)C[C@@](O)(C(=O)CO)C[C@@H]3O[C@H]1C[C@H](N)[C@H](O)[C@H](C)O1` [Adriamycin, reference compound], the pIC50 was less than 4.00 in data set [1], 8.00 in data set [2], 4.33 in data set [5] and 5.31 in data set [3]. For the same molecule, in data set [4], the “SI, Selectivity index, IC50(PBMCs)/IC50(CCRF-CEM)” value (“SI, Selectivity index” below) worked out at 4690.

With `O=C(CCCCCCC(=O)Nc1ccccc1)NO` [Vorinostat, reference compound], in data set [1], the pIC50 was 5.66.

With `CON=C1C(=O)N(CC(=O)OC2O[C@@H]3O[C@@]4(C)CC[C@H]5[C@H](C)CC[C@@H]([C@H]2C)[C@@]35OO4)c2ccccc21` (stereo partly drawn) [hybrid 7a, (3R,5aS,6R,8aS,9R,12R,12aR)-3,6,9-trimethyldecahydro-12H-3,12-epoxy[1,2]dioxepino[4,3-i]isochromen-10-yl 2-(3-(methoxyimino)-2-oxoindolin-1-yl)acetate], the pIC50 is 4.30 in data set [1], 5.42 in data set [2], less than 4.00 in data set [5] and 4.47 in data set [3]. In addition, the “SI, Selectivity index” value in data set [4] is on record as greater than 26.10.

Take `C[C@@H]1CC[C@H]2[C@@H](C)C(OC(=O)CN3C(=O)C(=NOCc4ccccc4)c4ccccc43)O[C@@H]3O[C@@]4(C)CC[C@@H]1[C@]32OO4` (stereo partly drawn) [hybrid 7b, (3R,5aS,6R,8aS,9R,12R,12aR)-3,6,9-trimethyldecahydro-12H-3,12-epoxy[1,2]dioxepino[4,3-i]isochromen-10-yl 2-(3-[(benzyloxy)imino)-2-oxoindolin-1-yl]acetate]: the pIC50 in data set [1], in data set [2] and in data set [3] was less than 4.00 in each case.

Consider `CON=C1C(=O)N(CC(=O)OC2O[C@@H]3O[C@@]4(C)CC[C@H]5[C@H](C)CC[C@@H]([C@H]2C)[C@@]35OO4)c2ccc(F)cc21` (stereo partly drawn) [hybrid 7c, (3R,5aS,6R,8aS,9R,12R,12aR)-3,6,9-trimethyldecahydro-12H-3,12-epoxy[1,2]dioxepino[4,3-i]isochromen-10-yl 2-(5-fluoro-3-(methoxyimino)-2-oxoindolin-1-yl)acetate], for which the negative-log IC50 (pIC50) in data set [1] is less than 4.00; in data set [2], 4.53; in data set [5], less than 4.00; in data set [3], less than 4.00.

Consider `CON=C1C(=O)N(CCC(=O)OC2O[C@@H]3O[C@@]4(C)CC[C@H]5[C@H](C)CC[C@@H]([C@H]2C)[C@@]35OO4)c2ccccc21` (stereo partly drawn) [hybrid 7e, (3R,5aS,6R,8aS,9R,12R,12aR)-3,6,9-trimethyldecahydro-12H-3,12-epoxy[1,2]dioxepino[4,3-i]isochromen-10-yl 3-(3-(methoxyimino)-2-oxoindolin-1-yl)propanoate], for which the pIC50 in data set [1] was 4.64; in data set [2], 4.82; in data set [5] it was less than 4.00; in data set [3], 5.42. The “SI, Selectivity index” value in data set [4] was greater than 6.59.

With `CCON=C1C(=O)N(CCC(=O)OC2O[C@@H]3O[C@@]4(C)CC[C@H]5[C@H](C)CC[C@@H]([C@H]2C)[C@@]35OO4)c2ccccc21` (stereo partly drawn) [hybrid 7f, (3R,5aS,6R,8aS,9R,12R,12aR)-3,6,9-trimethyldecahydro-12H-3,12-epoxy[1,2]dioxepino[4,3-i]isochromen-10-yl 3-(3-(ethoxyimino)-2-oxoindolin-1-yl)propanoate], the negative logarithm of the IC50 (pIC50) in data set [1] is less than 4.00; in data set [2], 5.04; in data set [5], less than 4.00; in data set [3] it was 5.24. The “SI, Selectivity index” value in data set [4] is listed as greater than 10.91.

As for `C[C@@H]1CC[C@H]2[C@@H](C)C(OC(=O)CCN3C(=O)C(=NOCc4ccccc4)c4ccccc43)O[C@@H]3O[C@@]4(C)CC[C@@H]1[C@]32OO4` (stereo partly drawn) [hybrid 7g, (3R,5aS,6R,8aS,9R,12R,12aR)-3,6,9-trimethyldecahydro-12H-3,12-epoxy[1,2]dioxepino[4,3-i]isochromen-10-yl 3-(3-[(benzyloxy)imino)-2-oxoindolin-1-yl]propanoate], the pIC50 in data set [1], in data set [2] and in data set [3] was less than 4.00 in each case.

On to `CON=C1C(=O)N(CCC(=O)OC2O[C@@H]3O[C@@]4(C)CC[C@H]5[C@H](C)CC[C@@H]([C@H]2C)[C@@]35OO4)c2ccc(F)cc21` (stereo partly drawn) [hybrid 7h, (3R,5aS,6R,8aS,9R,12R,12aR)-3,6,9-trimethyldecahydro-12H-3,12-epoxy[1,2]dioxepino[4,3-i]isochromen-10-yl 3-(5-fluoro-3-(methoxyimino)-2-oxoindolin-1-yl)propanoate], for which the negative logarithm of the IC50 (pIC50) is 4.79 in data set [1], 5.88 in data set [2], less than 4.00 in data set [5] and less than 4.00 in data set [3]. Moreover, the “SI, Selectivity index” value in data set [4] is recorded as greater than 76.33.

With `CCON=C1C(=O)N(CCC(=O)OC2O[C@@H]3O[C@@]4(C)CC[C@H]5[C@H](C)CC[C@@H]([C@H]2C)[C@@]35OO4)c2ccc(F)cc21` (stereo partly drawn) [hybrid 7i, (3R,5aS,6R,8aS,9R,12R,12aR)-3,6,9-trimethyldecahydro-12H-3,12-epoxy[1,2]dioxepino[4,3-i]isochromen-10-yl 3-(3-(ethoxyimino)-5-fluoro-2-oxoindolin-1-yl)propanoate], the pIC50 was less than 4.00 in data set [1], less than 4.00 in data set [2] and 4.80 in data set [3].

In the case of `C[C@@H]1CC[C@H]2[C@@H](C)C(OC(=O)CCN3C(=O)C(=NOCc4ccccc4)c4cc(F)ccc43)O[C@@H]3O[C@@]4(C)CC[C@@H]1[C@]32OO4` (stereo partly drawn) [hybrid 7j, (3R,5aS,6R,8aS,9R,12R,12aR)-3,6,9-trimethyldecahydro-12H-3,12-epoxy[1,2]dioxepino[4,3-i]isochromen-10-yl 3-(3-[(benzyloxy)imino)-5-fluoro-2-oxoindolin-1-yl]propanoate], the negative-log IC50 (pIC50) was 5.42 in data set [1], less than 4.00 in data set [2] and less than 4.00 in data set [3].

With `CON=C1C(=O)N(CCC(=O)OC2O[C@@H]3O[C@@]4(C)CC[C@H]5[C@H](C)CC[C@@H]([C@H]2C)[C@@]35OO4)c2ccc(OC)cc21` (stereo partly drawn) [hybrid 7k, (3R,5aS,6R,8aS,9R,12R,12aR)-3,6,9-trimethyldecahydro-12H-3,12-epoxy[1,2]dioxepino[4,3-i]isochromen-10-yl 3-(5-methoxy-3-(methoxyimino)-2-oxoindolin-1-yl)propanoate], the negative logarithm of the IC50 (pIC50) is less than 4.00 in data set [1], 5.17 in data set [2], less than 4.00 in data set [5] and less than 4.00 in data set [3]. Further, the “SI, Selectivity index” value in data set [4] is greater than 14.83.

`CCON=C1C(=O)N(CCC(=O)OC2O[C@@H]3O[C@@]4(C)CC[C@H]5[C@H](C)CC[C@@H]([C@H]2C)[C@@]35OO4)c2ccc(OC)cc21` (stereo partly drawn) [hybrid 7l, (3R,5aS,6R,8aS,9R,12R,12aR)-3,6,9-trimethyldecahydro-12H-3,12-epoxy[1,2]dioxepino[4,3-i]isochromen-10-yl 3-(5-methoxy-3-(ethoxyimino)-2-oxoindolin-1-yl)propanoate]: the pIC50 in data set [1] was less than 4.00; in data set [2], 4.71; in data set [5] it was less than 4.00; in data set [3], less than 4.00. The “SI, Selectivity index” value in data set [4] is on record as greater than 5.16.

With `CCON=C1C(=O)N(CCCC(=O)OC2O[C@@H]3O[C@@]4(C)CC[C@H]5[C@H](C)CC[C@@H]([C@H]2C)[C@@]35OO4)c2ccccc21` (stereo partly drawn) [hybrid 7n, (3R,5aS,6R,8aS,9R,12R,12aR)-3,6,9-trimethyldecahydro-12H-3,12-epoxy[1,2]dioxepino[4,3-i]isochromen-10-yl 4-(3-(ethoxyimino)-2-oxoindolin-1-yl)butanoate], the pIC50 in data set [1], in data set [2] and in data set [3] was less than 4.00 throughout.

`C[C@@H]1CC[C@H]2[C@@H](C)C(OC(=O)CCCN3C(=O)C(=NOCc4ccccc4)c4ccccc43)O[C@@H]3O[C@@]4(C)CC[C@@H]1[C@]32OO4` (stereo partly drawn) [hybrid 7o, (3R,5aS,6R,8aS,9R,12R,12aR)-3,6,9-trimethyldecahydro-12H-3,12-epoxy[1,2]dioxepino[4,3-i]isochromen-10-yl 4-(3-[(benzyloxy)imino)-2-oxoindolin-1-yl]butanoate]: the pIC50 in data set [1], in data set [2] and in data set [3] was less than 4.00 throughout.
